This assay deals with Mycobacterium tuberculosis H37Rv strains. Put plainly: In vitro assay for antimicrobial susceptibility (microplate Alamar blue MIC). It counts as cell-based. Particulars: Mycobacterium tuberculosis, H37RV, read-out: MIC (μg/mL) against H37Rv.
Setting [1] is: in vitro, Mycobacterium tuberculosis H37Rv strains.
Setting [2] is: 7H9, Alamar blue, inhibition ≧90%.

≈ marks a conversion by molar mass, not a printed value. Read-outs that look alike come from different tables or passages of the source.

Turning to `COc1ncccc1Nc1cc2nc3ccccc3n(-c3ccc(NC(C)=O)cc3)c-2c/c1=N\C(C)C` [TBI-1220, 5-(4-Acetamidophenyl)-3-(1-methylethyl)imino-2-(2-methoxy-3-pyridyl)amino-3,5-dihydrophenazine], the MIC under setting [1] is over 0.5 µg/mL.

Regarding `FC(F)(F)c1ccc(-n2c3c/c(=N\C4CCN(C5CCCC5)CC4)c(Nc4cccnc4)cc-3nc3ccccc32)cc1` [TBI-691, 5-(4-Trifluoromethylphenyl)-3-(N-cyclopentyl-4-piperidyl)imino-2-(3-pyridyl)amino-3,5-dihydrophenazine], the MIC under setting [1] came out at 0.06 µg/mL (≈ 0.103 µM).

With `COc1ccc(Nc2cc3nc4ccccc4n(-c4ccc(C(F)(F)F)cc4)c-3c/c2=N\C(C)C)cn1` [TBI-731], the MIC under setting [1] stood at 0.348 µg/mL (≈ 0.691 µM).

`COc1ncccc1Nc1cc2nc3ccc(F)cc3n(-c3ccc(OC(F)(F)F)cc3)c-2c/c1=N\C1CCOCC1` [TBI-855]: the MIC under setting [1] turned out to be 0.193 µg/mL (≈ 0.333 µM).

Regarding `COc1ncccc1Nc1cc2nc3ccccc3n(-c3cccc(OC(F)(F)F)c3)c-2c/c1=N\C(C)C` [TBI-1038, 5-(3-Trifluoromethoxyphenylethylethyl)imino-2-(2-methoxy-3-pyridyl)amino-3,5-dihydrophenazine], under setting [1], the MIC is 0.118 µg/mL (≈ 0.227 µM).

As to `Cc1ccc(Nc2cc3nc4ccccc4n(-c4ccc(Br)cc4)c-3c/c2=N\C2CCC2)cn1` [TBI-501, 5-(4-Bromophenyl)-3-cyclobutylimino-2-(6-methyl-3-pyridyl)amino-3,5-dihydrophenazine], under setting [1], the MIC was 0.09 µg/mL (≈ 0.176 µM).

`Cc1ccc(Nc2cc3nc4ccccc4n(-c4ccc(F)cc4)c-3c/c2=N\C2CCSCC2)cn1` [TBI-90B, 5-(4-Fluorophenyl)-3-(4-tetrahydrothiopyranyl)imino-2-(6-methyl-3-pyridyl)amino-3,5-dihydrophenazine]: the MIC under setting [1] amounted to 0.397 µg/mL (≈ 0.801 µM).

As for `CC(C)/N=c1\cc2n(-c3ccc(F)c(F)c3)c3ccccc3nc-2cc1Nc1ccccn1` [TBI-1436, 5-(3,4-Difluorophenyl)-3-(1-methylethyl)imino-2-(2-pyridyl)amino-3,5-dihydrophenazine], the MIC under setting [2] was found to be 0.028 µg/mL (≈ 0.0634 µM).

For the compound `COc1ccc(Nc2cc3nc4ccccc4n(-c4ccc(F)cc4)c-3c/c2=N\C(C)C)cn1` [TBI-930], the MIC under setting [1] is 0.494 µg/mL (≈ 1.09 µM).

As for `COc1ncccc1Nc1cc2nc3ccccc3n(-c3ccc(C(F)(F)F)cc3)c-2c/c1=N\C1CCC1` [TBI-728, 5-(4-Trifluoromethylphenyl)-3-cyclobutylimino-2-(2-methoxy-3-pyridyl)amino-3,5-dihydrophenazine], the MIC under setting [1] was found to be 0.033 µg/mL (≈ 0.064 µM).

On to `COC1CCC(/N=c2\cc3n(-c4ccc(Cl)cc4)c4ccccc4nc-3cc2Nc2cnccn2)CC1` (centres unmarked) [TBI-1091, 5-(4-Chlorophenyl)-3-(4-methoxycyclohexyl)imino-2-(pyrazin-2-yl)amino-3,5-dihydrophenazine], for which the MIC under setting [2] worked out at 0.018 µg/mL (≈ 0.0352 µM).

Regarding `COC1CCC(/N=c2\cc3n(-c4ccccc4)c4ccccc4nc-3cc2Nc2cccnc2C)CC1` (centres unmarked) [TBI-076], the MIC under setting [1] was 0.042 µg/mL (≈ 0.0858 µM).

For `Cc1ccc(-n2c3c/c(=N\C4CCN(C)CC4)c(Nc4cccnc4C)cc-3nc3ccccc32)cc1` [TBI-326, 5-(4-Methylphenyl)-3-(N-methyl-4-piperidyl)imino-2-(2-methyl-3-pyridyl)amino-3,5-dihydrophenazine], the MIC under setting [1] turned out to be 0.1 µg/mL (≈ 0.205 µM).

In the case of `CC(C)CN1CCC(/N=c2\cc3n(-c4ccc(C(F)(F)F)cc4)c4ccccc4nc-3cc2Nc2cccnc2)CC1` [TBI-687, 5-(4-Trifluoromethylphenyl)-3-(N-isobutyl-4-piperidyl)imino-2-(3-pyridyl)amino-3,5-dihydrophenazine], the MIC under setting [1] was found to be 0.06 µg/mL (≈ 0.105 µM).

For the compound `Cc1ccc(Nc2cc3nc4ccccc4n(-c4ccc(F)cc4)c-3c/c2=N\C(C)C)cn1` [TBI-692, 5-(4-Fluorophenyl)-3-(1-methylethyl)imino-2-(6-methyl-3-pyridyl)amino-3,5-dihydrophenazine], the MIC under setting [1] was determined as 0.06 µg/mL (≈ 0.137 µM).

For the compound `Brc1ccc(-n2c3c/c(=N\C4CCC4)c(Nc4cccnc4)cc-3nc3ccccc32)cc1` [TBI-098, 5-(4-Bromophenyl)-3-cyclobutylimino-2-(3-pyridyl)amino-3,5-dihydrophenazine], the MIC under setting [1] is 0.028 µg/mL (≈ 0.0564 µM).

For the compound `FC(F)(F)Oc1cccc(-n2c3c/c(=N\C4CCCCC4)c(Nc4cccnc4)cc-3nc3ccccc32)c1` [TBI-1022, 5-(3-Trifluoromethoxyphenyl)-3-cyclohexylimino-2-(3-pyridyl)amino-3,5-dihydrophenazine], the MIC under setting [1] is 0.074 µg/mL (≈ 0.14 µM).

Regarding `COc1ncccc1Nc1cc2nc3ccccc3n(-c3ccc(OC(F)(F)F)cc3)c-2c/c1=N\C1CCOCC1` [TBI-167, 5-(4-Trifluoromethoxyphenyl)-3-(4-tetrahydropyranyl)imino-2-(2-methoxy-3-pyridyl)amino-3,5-dihydrophenazine], under setting [1], the MIC is 0.016 µg/mL (≈ 0.0285 µM).

With `Cc1ccc(Nc2cc3nc4ccccc4n(-c4ccc(Br)cc4)c-3c/c2=N\C2CCCCC2)cn1` [TBI-502, 5-(4-Bromophenyl)-3-cyclohexylimino-2-(6-methyl-3-pyridyl)amino-3,5-dihydrophenazine], the MIC under setting [1] came out at 0.217 µg/mL (≈ 0.403 µM).

Take `COc1ccc(Nc2cc3nc4ccccc4n(-c4ccc(C(F)(F)F)cc4)c-3c/c2=N\C2CCC(OC)CC2)cn1` (centres unmarked) [TBI-735, 5-(4-Trifluoromethylphenyl)-3-(4-methoxycyclohexyl)imino-2-(6-methoxy-3-pyridyl)amino-3,5-dihydrophenazine]: the MIC under setting [1] was 0.186 µg/mL (≈ 0.324 µM).

On to `CC(C)/N=c1\cc2n(-c3ccc(F)cc3)c3ccccc3nc-2cc1Nc1ccccn1` [TBI-1054, 5-(4-Fluorophenyl)-3-(1-methylethyl)imino-2-(2-pyridyl)amino-3,5-dihydrophenazine], for which the MIC under setting [2] came out at 0.446 µg/mL (≈ 1.05 µM).

Turning to `Cc1ncccc1Nc1cc2nc3ccccc3n(-c3ccccc3)c-2c/c1=N\C1CCC(O)CC1` (centres unmarked) [TBI-092], under setting [1], the MIC amounted to 0.5 µg/mL (≈ 1.05 µM).

On to `Cc1ccc(Nc2cc3nc4ccccc4n(-c4ccc(F)cc4)c-3c/c2=N\C2CCN(CC(C)C)CC2)cn1` [TBI-904, 5-(4-Fluorophenyl)-3-(N-isobutyl-4-piperidyl)imino-2-(6-methyl-3-pyridyl)amino-3,5-dihydrophenazine], for which, under setting [1], the MIC was 0.016 µg/mL (≈ 0.0299 µM).

For `COc1ncccc1Nc1cc2nc3cc(F)ccc3n(-c3ccc(Cl)c(Cl)c3)c-2c/c1=N\C1CCOCC1` [TBI-877, 8-Fluoro-5-(3,4-dichlorophenyl)-3-(4-tetrahydropyranyl)imino-2-(2-methoxy-3-pyridyl)amino-3,5-dihydrophenazine], the MIC under setting [1] is 0.091 µg/mL (≈ 0.161 µM).

With `Cc1ccc(Nc2cc3nc4ccccc4n(-c4ccc(Cl)cc4)c-3c/c2=N\C2CCN(C)CC2)cn1` [TBI-446, 5-(4-Chlorophenyl)-3-(N-methyl-4-piperidyl)imino-2-(6-methyl-3-pyridyl)amino-3,5-dihydrophenazine], the MIC under setting [1] stood at 0.016 µg/mL (≈ 0.0314 µM).

As for `COc1ncccc1Nc1cc2nc3ccccc3n(-c3ccccc3)c-2c/c1=N\CCN1CCOCC1` [TBI-065, 5-Phenyl-3-(2-morpholinoethyl)imino-2-(2-methoxy-3-pyridyl)amino-3,5-dihydrophenazine], under setting [1], the MIC amounted to 0.08 µg/mL (≈ 0.158 µM).

Consider `Cc1ccc(Nc2cc3nc4ccccc4n(-c4ccccc4)c-3c/c2=N\C2CCCCC2)cn1` [TBI-080, 5-Phenyl-3-cyclohexylimino-2-(6-methyl-3-pyridyl)amino-3,5-dihydrophenazine], for which the MIC under setting [1] was found to be 0.243 µg/mL (≈ 0.529 µM).

Turning to `CC(C)/N=c1\cc2n(-c3ccc(F)c(F)c3)c3ccccc3nc-2cc1Nc1cccnc1` [TBI-525, 5-(3,4-Difluorophenyl)-3-(1-methylethyl)imino-2-(3-pyridyl)amino-3,5-dihydrophenazine], the MIC under setting [1] is 0.058 µg/mL (≈ 0.131 µM).

For `Clc1ccc(-n2c3c/c(=N\C4CCC4)c(Nc4cncc(Br)c4)cc-3nc3ccccc32)cc1` [TBI-883, 5-(4-Chlorophenyl)-3-cyclobutylimino-2-(5-bromo-3-pyridyl)amino-3,5-dihydrophenazine], under setting [1], the MIC was 0.03 µg/mL (≈ 0.0565 µM).

As for `CC(C)/N=c1\cc2n(-c3ccc(Br)cc3)c3ccccc3nc-2cc1Nc1cccnc1` [TBI-088, 5-(4-Bromophenyl)-3-(1-methylethyl)imino-2-(3-pyridyl)amino-3,5-dihydrophenazine], under setting [1], the MIC was determined as 0.023 µg/mL (≈ 0.0475 µM).

As for `COc1ccc2nc3cc(Nc4ccc(C)nc4)/c(=N/C(C)C)cc-3n(-c3ccc(Cl)cc3)c2c1` [TBI-898], the MIC under setting [1] came to 0.25 µg/mL (≈ 0.517 µM).

`COc1ccc(Nc2cc3nc4ccccc4n(-c4ccccc4)c-3c/c2=N\C2CC2)cn1` [TBI-511, 5-Phenyl-3-cyclopropylimino-2-(6-methoxy-3-pyridyl)amino-3,5-dihydrophenazine]: the MIC under setting [1] turned out to be 0.177 µg/mL (≈ 0.408 µM).

In the case of `COCC(C/N=c1\cc2n(-c3ccc(Cl)cc3)c3ccccc3nc-2cc1Nc1cccnc1OC)OC` (centres unmarked) [TBI-872, 5-(4-Chlorophenyl)-3-(2,3-dimethoxy-1-propyl)imino-2-(2-methoxy-3-pyridyl)amino-3,5-dihydrophenazine], under setting [1], the MIC worked out at 0.06 µg/mL (≈ 0.113 µM).

Turning to `CC(C)/N=c1\cc2n(-c3ccc(Cl)cc3)c3ccccc3nc-2cc1Nc1ncccn1` [TBI-1051, 5-(4-chlorophenyl)-3-(1-methylethyl)imino-2-(pyrimidin-2-yl)amino-3,5-dihydrophenazine], under setting [2], the MIC was 0.015 µg/mL (≈ 0.034 µM).

Turning to `Cc1ncccc1Nc1cc2nc3ccccc3n(-c3ccc(F)cc3)c-2c/c1=N\C1CCOCC1` [TBI-1012, 5-(4-Fluorophenyl)-3-(4-tetrahydropyranyl)imino-2-(2-methyl-3-pyridyl)amino-3,5-dihydrophenazine], the MIC under setting [1] is 0.026 µg/mL (≈ 0.0542 µM).

As for `COc1ncccc1Nc1cc2nc3ccccc3n(-c3ccc(Cl)cc3Cl)c-2c/c1=N\C1CCOCC1` [TBI-947, 5-(2,4-Dichlorophenyl)-3-(4-tetrahydropyranyl)imino-2-(2-methoxy-3-pyridyl)amino-3,5-dihydrophenazine], the MIC under setting [1] amounted to 0.06 µg/mL (≈ 0.11 µM).

In the case of `Cc1ccc(-n2c3c/c(=N\C4CCN(CC(C)C)CC4)c(Nc4ccc(C)nc4)cc-3nc3ccccc32)cc1` [TBI-320, 5-(4-Methylphenyl)-3-(N-isobutyl-4-piperidyl)imino-2-(6-methyl-3-pyridyl)amino-3,5-dihydrophenazine], the MIC under setting [1] was determined as 0.11 µg/mL (≈ 0.207 µM).

As for `Cc1ncccc1Nc1cc2nc3ccccc3n(-c3ccccc3)c-2c/c1=N\C1CCOCC1` [TBI-075, 5-Phenyl-3-(4-tetrahydropyranyl)imino-2-(2-methyl-3-pyridyl)amino-3,5-dihydrophenazine], the MIC under setting [1] was found to be 0.328 µg/mL (≈ 0.711 µM).

The values above are taken from patent publication US8716292B2, “Riminophenazines with 2-(heteroaryl)amino substituents and their anti-microbial activity” (priority 2010, dated 2014).
